# Data taken from article PMC12723470, “Heteromultivalent Nanogels as Highly Potent Inhibitors of Pseudomonas Aeruginosa” (Angewandte Chemie (International Ed. in English), 2025).
# System: 72 h mature P. aeruginosa biofilm
# Assay: Mature biofilm eradication assay
# Type: cell-based, Pseudomonas aeruginosa
# Details: 24 h treatment
# Protocol: Inspired by the results of planktonic bactericidal experiments, we further evaluated the anti‐biofilm activity of the nanogels. […] This observation further reinforces our hypothesis that heteromultivalent nanogels with glyco‐residues and the BMAP‐18 peptide contribute to the long‐term eradication of P. aeruginosa. Further, a mature biofilm eradication assay was performed. […] More than 99.9% biofilm‐coated P. aeruginosa were inactivated (Figure 4a and S10). […] Overall, biofilm inhibition experiments with different control NG, NG‐Fuc/Gal and PNG‐Fuc/Gal reveal that PNG‐Fuc/‐Gal decomposes biofilm by a binding and killing mechanism. First, they bind with bacteria surface lectins via their specific sugar ligands and then inactivate using their surface BMAPs leading to a strong reduction in the biofilm matrix.
# Figure 4 a) P. aeruginosa biofilm matrix visualization after 72 h of treatment with samples (red: biofilm matrix, scale bar = 20 µm), b) Biofilm coated‐ P. aeruginosa viability after 12 h treatment of samples. c) Mature P. aeruginosa biofilm visualization after 12 h of treatment with samples, and statistics for thickness and roughness (mean ± SD, n = 7), d) Mature P. aeruginosa biofilm visualization after 24 h of treatment with samples, and statistics for thickness and roughness (mean ± SD, n = 7). 0.01 <*p< […], 0.001 <**p < 0.01, ***p < 0.001, compared with Control group.
compound,measurement,value
NC[C@H]1O[C@H](O[C@H]2[C@H](O)[C@@H](O[C@H]3O[C@H](CO)[C@@H](O)[C@H](N)[C@H]3O)[C@H](N)C[C@@H]2N)[C@H](N)C[C@@H]1O [tobramycin],change of mature biofilm when treatment extended from 12 h to 24 h,did not show significant changes
